Laboratory results published in paper PMC9023544, “Ketone-selenoesters as potential anticancer and multidrug resistance modulation agents in 2D and 3D ovarian and breast cancer in vitro models” (Scientific Reports, 2022).

Experiments:
HOC = assay: Oxidation stress (ROS), Muse Oxidative Stress Kit; format: cell-based, human; details: 1 µM (DMSO 5% V/V), 24 h
Experimental: Selenoesters (K3, K4, K7) were tested for their ability to generate reactive oxygen species (ROS). HOC was exposed to selenoesters in concentration of 1 µM for 24 h. DMSO (5% V/V) was used as a positive control. The required volume of DMSO (1% V/V) was added to untreated cells. ROS are essential biomolecules in cellular regulation as a part of the defence mechanisms. On the other hand, their participation in cell signalling may affect apoptosis and other death pathways. In the assay, dihydroethidium (DHE) reacts with superoxide anions by forming DNA-binding fluorophore ethidium bromide. Based on fluorescence, the cell population can be distinguished into ROS negative and ROS positive cells containing oxygen radicals.
To determine the oxidation stress potential of selected selenoesters, HOC were seeded into 24-well plates at a density 2 × 10^5 cells/mL for 24 h according to the above mentioned procedure. Afterwards, the plates were washed 1 ×with PBS and fresh DMEM medium containing compounds K3, K4, K7 (final concentration—1 µM) was added for 24 h, except for the positive and negative control. […] as the oxidation stress inductor. After incubation, the cells were washed 1× with PBS and released from the surface by using a trypsin–EDTA solution. After trypsin inhibition by medium addition, the cell suspensions were centrifuged (100×g, 5 min, 25 °C), supernatants were removed, and cell pellets resuspended in 1× assay buffer. All reagents were prepared immediately before use. Afterwards, 10 µL of the cell suspension were mixed with 190 µL of working solution (Muse Oxidative stress reagent) and stained for 30 min at 37 °C. Subsequently, the […] were analysed by Guava Muse Cell Analyzer. Oxidation stress detection was performed following the instructions provided by the manufacturer.

[1] = test system: HOC (human parental ovarian adenocarcinoma, A2780); assay: Cytotoxic activity, 2D, resazurin, 72 h; format: cell-based
Experimental: (§1) The cytotoxic potential of selenoesters was tested on several cancer cell lines—HOC (human parental ovarian adenocarcinoma, HOC, A2780, Sigma-Aldrich), HOC/ADR (sub-line resistant to Adriamycin, A2780/ADR, Sigma-Aldrich), MCF-7 (human breast adenocarcinoma, ATCC®, HTB-22TM), MCF-7/PAX (resistant sub-line established by gradual adaptation of parental cells to increased concentration of paclitaxel; kindly provided by Division of Cell and Molecular Biology, Third Faculty of Medicine, Charles University, Czech Republic) and on one non-cancerous cell line—HEK293 (human embryonic kidney cell line, Leibniz Institute, DSMZ-German Collection of Microorganisms and Cell Cultures GmbH). All mentioned cell lines were authenticated using short tandem repeat (STR) profiling. Cell lines were cultivated in DMEM medium (10% FBS, 1× antibiotic antimycotic solution), except for HEK293 cell line which was cultivated without antibiotics. In case of the resistant cell lines, the medium was supplemented with a required concentration of cytostatics to maintain resistance (HOC/ADR—100 nM Adriamycin; MCF-7/PAX—300 nM paclitaxel). All cells were cultivated in a CO2 incubator (5% CO2, 37 °C, Thermo Fisher Scientific).
(§2) For the experiment, the cells at passage number 5–20 were seeded at a 1 × 10^5 cells/mL concentration into 96-well plates to 100 µL final volume. The final concentration range of the compounds was 0.63–20 µM. After an incubation of 72 h, the plates were washed 1× with PBS and resazurin solution (0.03 mg/mL in 1× PBS) was added. After 1 h of incubation, the fluorescence signal was recorded (ex./em. 560/590 nm).
(§3) The selectivity index (SI) was determined as the ratio of IC50 value for the non-cancerous cells to IC50 for the cancer cell line. For resistant cell lines, the collateral sensitivity (CS) was calculated as the ratio of IC50 value in sensitive tumour cells to IC50 in the resistant cancer cell line. In both cases, the selectivity is considered as: (1) strongly selective when SI or CS value is above 6, (2) moderately selective when SI or CS is between 3 and 6, (3) slightly selective when SI or CS is between 1 and 3 and (4) non-selective when SI or CS is less than 1[23].

[2] = test system: MCF-7 (human breast adenocarcinoma); assay: Cytotoxic activity, 2D, resazurin, 72 h; format: cell-based
Experimental: as §1, §2, §3

[3] = test system: HOC/ADR (sub-line resistant to Adriamycin, A2780/ADR); assay: Cytotoxic activity, 2D, resazurin, 72 h; format: cell-based, human
Experimental: as §1, §2, §3

[4] = test system: MCF-7/PAX (paclitaxel-resistant sub-line); assay: Cytotoxic activity, 2D, resazurin, 72 h; format: cell-based, human
Experimental: as §1, §2, §3

[5] = test system: HEK293 (human embryonic kidney cell line); assay: Cytotoxic activity, non-cancerous cell line, resazurin, 72 h; format: cell-based; details: Homo sapiens, HEK293; 72 h, mean ± SEM, n=3
Experimental: as §1, §2, §3

HOC/ADR = assay: Sensitization of MDR cell line to Adriamycin; format: cell-based, human; details: IC50 of Adriamycin / IC50 of Adriamycin with IC10 dose of compound
Experimental: To determine the sensitization potential of compounds, HOC/ADR and MCF-7/PAX were used. Based on the cytotoxic potential of the compounds against several cancer and non-cancerous cell lines (Table 1), the concentrations of applied compounds were adjusted. IC10 values was considered as the concentrations, which should not decrease the cell viability under 90%. After the addition of compounds, Adriamycin (concentration range 0.1–20 µM) and paclitaxel (concentration range 0.1–10 µM) were added to HOC/ADR and MCF-7/PAX, respectively. The sensitization potential of the compounds was determined as the ratio of the IC50 of cytostatic agent (Adriamycin/paclitaxel) to the IC50 of cytostatic agent affected by the compound in concentration corresponding to the IC10 value. Fold change greater than 1 indicated synergic effect of cytostatic agent and the tested compound.
After that, the plates were washed 1× with PBS and fresh DMEM medium supplemented with tested compounds at final concentration corresponding their IC10 value was added, except for positive control wells. Subsequently, Adriamycin (concentration range 0.1–20 µM) or paclitaxel (concentration range 0.1–10 µM) was added to the appropriate cell line for 72 h. After incubation, the cells were washed 1× with PBS and the resazurin solution (0.03 mg/mL) was added to evaluate the cell viability as described above. IC50 values of cytostatics were calculated for both the control and compounds; a fold change was counted up. When this fold change is higher than 1 indicates a synergism between the tested cytostatic agent and the compound, while a fold change lower than 1 means an antagonism. Fold change=IC50value of cytostatic treated cells only/IC50value of cytostatic treated cells in addition of the compound

[6] = test system: prostate metastatic cancer line; parameters: method as in PMID 21549092; details: cited from earlier work

In the case of C[S+](C)[O-] [DMSO (5% V/V), dimethyl sulfoxide, reference compound], the “ROS(+) cells” value (HOC) is reported as 68.7 ± 1.9 % and the “ROS(−) cells” value (HOC) is reported as 31.8 ± 2.3 %.
In the case of N#CC[Se]C(=O)c1cc(C(F)(F)F)cc(C(F)(F)F)c1 [N7], the IC50 ([1]; Homo sapiens, A2780, 72 h, 2D, 72 h, mean ± SEM, n=3, read-out: HOC IC50) is reported as 2900 ± 100 nM, the “SI HEK293/HOC” value ([1]; IC50 HEK293 / IC50 HOC) is reported as 2.3 ± 0.3 and the IC50 ([2]; Homo sapiens, MCF7, 2D, 72 h, mean ± SEM, n=3, read-out: MCF-7 IC50) is reported as 2200 ± 100 nM. The “SI HEK293/MCF-7” value ([2]; IC50 HEK293 / IC50 MCF-7) was 3.0 ± 0.5, the “selectivity versus HEK293 (in words)” value ([2]; sensitive MCF-7) was “moderate selectivity” and the IC10 ([3]; Homo sapiens, A2780 ADR, 72 h, HOC/ADR, concentration that should not decrease viability under 90%, read-out: IC10 of compounds) was 3.1 µM. For the same compound, the IC50 ([3]; Homo sapiens, A2780 ADR, 2D, 72 h, mean ± SEM, n=3, read-out: HOC/ADR IC50) was 5.7 ± 0.2 µM, the “SI HEK293/HOC/ADR” value ([3]; IC50 HEK293 / IC50 HOC/ADR) was 1.2 ± 0.1 and the IC50 ([4]; Homo sapiens, MCF7, 2D, 72 h, mean ± SEM, n=3, read-out: MCF-7/PAX IC50) was 2700 ± 300 nM. For the same compound, the “SI HEK293/MC7-7/PAX” value ([4]; IC50 HEK293 / IC50 MCF-7/PAX) was 2.5 ± 0.4, the “CS (collateral sensitivity index)” value ([4]; IC50 MCF-7 / IC50 MCF-7/PAX) was 0.8 ± 0.1 and the IC50 [5] was 6.6 ± 0.6 µM. The Fold change (HOC/ADR) was “(1.1 ± 0.1)×”.
For CC(=O)O[C@@]12CO[C@@H]1C[C@H](O)[C@@]1(C)C(=O)[C@H](O)C3=C(C)[C@@H](OC(=O)[C@H](O)[C@@H](NC(=O)OC(C)(C)C)c4ccccc4)C[C@@](O)([C@@H](OC(=O)c4ccccc4)[C@H]21)C3(C)C [docetaxel], the growth inhibition [6] is listed as 22%.
In the case of O=[Se]([O-])[O-].[Na+].[Na+] [sodium selenite], the growth inhibition [6] is given as 24%.
